From patent US20190008155A1, “Synergistic Agricultural Formula Comprising Diacyl or Diaryl Urea and At Least One Plant Growth Regulator” (Stoller Enterprises, Inc., priority 2017, published 2019) come the findings set out here.

Holding throughout (type): in vivo
Assay [1] relates to winter wheat. The assay can be described thus: Yield upon winter wheat seed treatment (FIG. 6). The settings on record: statistical data for FIG. 6, yield. An excerpt:
FIG. 6 is a graph showing the yield upon winter wheat seed treatment using a synergistic agricultural formula in accordance with the present invention including 14 wt. % DFU and 10 wt. % of Stollers STIMULATE YE Plant Growth Regulator Mix applied at a Pint/Acre compared to each individual component applied at a Pint/Acre;
(§1) The statistical data for this analysis is provided as follows: […]

Assay [2] relates to corn. The assay can be described thus: Yield in furrow corn treatment (FIG. 8). The conditions noted are these: statistical data for FIG. 8, yield.
Description: FIG. 8 is a graph showing the yield in furrow corn treatment using a synergistic agricultural formula in accordance with the present invention including 7.5 wt. % DFU, 0.01 wt. % cytokinin, and 0.05 wt. % IAA applied at a Pint/Acre compared to each individual component applied at a Pint/Acre; and
as §1

Assay [3] deals with corn. Nature of the assay: Yield, V3-V5 foliar corn treatment (FIG. 9). The conditions noted are these: statistical data for FIG. 9, yield.
Description: FIG. 9 is a graph showing V3-V5 foliar corn treatment using a synergistic agricultural formula in accordance with the present invention including 7.5 wt. % DFU and 0.01 wt. % cytokinin applied at a Pint/Acre compared to each individual component applied at a Pint/Acre.
as §1

For assay [4], the system named is corn. The assay can be described thus: Yield upon corn seed treatment (FIG. 5). The settings on record: statistical data for FIG. 5, yield.
Description: FIG. 5 is a graph showing the yield upon corn seed treatment using a synergistic agricultural formula in accordance with the present invention including 14 wt. % DFU and 10 wt. % of Stollers STIMULATE YE Plant Growth Regulator Mix applied at a Pint/Acre compared to each individual component applied at a Pint/Acre;
as §1

Assay [5] relates to soybean. Nature of the assay: Yield upon soybean seed treatment (FIG. 7). The conditions noted are these: statistical data for FIG. 7, yield.
Description: FIG. 7 is a graph showing the yield upon soybean seed treatment using a synergistic agricultural formula in accordance with the present invention including 14 wt. % DFU and 10 wt. % of Stollers STIMULATE YE Plant Growth Regulator Mix applied at a Pint/Acre compared to each individual component applied at a Pint/Acre;
as §1

Take `O=CNC(=O)NC=O` [15% DFU, N,N′-diformylurea]: the “p Vs Combination” value in assay [1] is listed as 0.0089; in assay [2], 0.0622; in assay [3], 0.0677; in assay [4] it was 0.0442; in assay [5], 0.052. Besides, the “p Vs Control” value in assay [1] is listed as 0.0026; in assay [2], 0.5485; in assay [3], 0.6829; in assay [4] it was 0.8782; in assay [5], 0.4492.
